In US5436231A, “Adenophostins” (Sankyo Company, Limited, priority 1991, dated 1995):

Experiments:
[1] = tested on: endoplasmic reticulum (microsome) of rat cerebellum; test: 45Ca++ releasing activity from the endoplasmic reticulum; assay type: biochemical; conditions: 1 minute after addition, 30° C., pH 7.2; for calcium ion released of that incorporated into the endoplasmic reticulum: compound at 10 nM
Protocol: (§1) Adenophostins A and B were characterized by their inhibitory activity on [^3 H]-InsP3 binding to rat cerebellar InsP3 receptors, and the ^45 Ca^++ releasing activity from the endoplasmic reticulum, which was prepared from rat cerebellum.
^45 Ca^++ Releasing activity from the endoplasmic reticulum
The ^45 Ca^++ releasing activity from the endoplasmic reticulum was assayed using the method reported by Supattapone et al. [Proc. Natl, Acad. Sci. USA 85, 8747-8750 (1988)] with slight modifications.
The endoplasmic reticulum (microsome) of rat cerebellum was suspended in 10 mM of a HEPES-KOH buffer (pH 7.2) containing 100 mM of potassium chloride, 2.5 mM of magnesium chloride, 1 mM of dithiothreitol (DTT), 10 mM of creatine phosphate, creatine kinase (10 units/ml), 2 μg/ml of oligomycin, 50 μM of calcium chloride containing 1 μCi/ml of ^45 Ca, and 0.12 mM of ethylene glycol bis(2-aminoethyl ether)-N,N,N',N'-tetraacetic acid (EGTA), and the protein concentration in the suspension was adjusted to 0.5 mg/ml. 1 mM of adenosine triphosphate magnesium salt was added to 1 ml of this suspension, and the mixture was incubated for 11 minutes at 30° C. in order to incorporate the ^45 Ca^++ into the endoplasmic reticulum. InsP3, adenophostin A or adenophostin B was then added to release the incorporated ^45 Ca^++ from the endoplasmic reticulum. 10 minutes after the addition of the adenosine triphosphate magnesium salt (1 minute before the addition of the adenophostins or InsP3), and then 12 minutes after the addition of the adenosine triphosphate magnesium salt (1 minute after the addition of the adenophostins or InsP3), 100 μl of the reaction solution was removed, and the sampled solution was filtered through a Milipore filter (HA, […], Product of Milipore) to collect the. endoplasmic reticulum on the filter. The filter was washed with 4 ml of a 10 mM HEPES-KOH buffer (pH 7.2) containing 100 mM of potassium chloride and 1 mM of EGTA, and the radioactivity on the filter was determined by the addition of 5 ml of Pico-flow (a trade name for a product of Packard Co.) agents.

[2] = Solubility; assay type: physicochemical; conditions: for Solubility in lower alcohols: such as methanol or ethanol
[3] = target: T1, rat cerebellar InsP3 receptors (Rattus norvegicus, UniProt P29994); test: Inhibitory activity on [3H]-InsP3 binding to InsP3 receptors; conditions: rat cerebellar membrane fraction; 10 nM [3H]-InsP3; 5 minutes, room temperature; pH 8.0; read-out: IC50 (concentration required to inhibit the binding of [3H]-InsP3 by 50%)
T1 construct: A rat cerebellar membrane fraction was homogenized; from tissue; host or cells: rat cerebellum, membrane fraction
Protocol: as §1
Inhibitory activity on [^3 -H]-InSP3 binding to InsP3 receptors
The inhibitory activity of [^3 H]-InsP3 binding was assayed according to the method of Worley et al. [J. Biol. Chem. 262, 12132-12136 (1987)].
A rat cerebellar membrane fraction was homogenized in 50 mM of Tris-HC1 (pH 8.0) and 1 mM of ethylenediaminetetraacetic acid, and the protein concentration in the homogenized material was adjusted to 0.6 mg/ml. 1 ml of this cerebellar homogenate was taken and 10 nM of [^3 H]-InsP3and either adenophostin A or adenophostin B were added to it. The mixture was incubated for 5 minutes at room temperature, and then centrifuged for 5 minutes at 12,000 rpm at a temperature of 4° C. The supernatant was removed and the precipitated cerebellar membrane fraction was dissolved in 5 ml of Pico-flow (a trade name for a product of Packard Co.) to determine its radioactivity. The bound [^3 H]-InsP3 was then determined.
IC50 indicates the concentration required to inhibit the binding of [^3 H]-InsP3 by 50%.

T1 sequence (P29994 whole entry): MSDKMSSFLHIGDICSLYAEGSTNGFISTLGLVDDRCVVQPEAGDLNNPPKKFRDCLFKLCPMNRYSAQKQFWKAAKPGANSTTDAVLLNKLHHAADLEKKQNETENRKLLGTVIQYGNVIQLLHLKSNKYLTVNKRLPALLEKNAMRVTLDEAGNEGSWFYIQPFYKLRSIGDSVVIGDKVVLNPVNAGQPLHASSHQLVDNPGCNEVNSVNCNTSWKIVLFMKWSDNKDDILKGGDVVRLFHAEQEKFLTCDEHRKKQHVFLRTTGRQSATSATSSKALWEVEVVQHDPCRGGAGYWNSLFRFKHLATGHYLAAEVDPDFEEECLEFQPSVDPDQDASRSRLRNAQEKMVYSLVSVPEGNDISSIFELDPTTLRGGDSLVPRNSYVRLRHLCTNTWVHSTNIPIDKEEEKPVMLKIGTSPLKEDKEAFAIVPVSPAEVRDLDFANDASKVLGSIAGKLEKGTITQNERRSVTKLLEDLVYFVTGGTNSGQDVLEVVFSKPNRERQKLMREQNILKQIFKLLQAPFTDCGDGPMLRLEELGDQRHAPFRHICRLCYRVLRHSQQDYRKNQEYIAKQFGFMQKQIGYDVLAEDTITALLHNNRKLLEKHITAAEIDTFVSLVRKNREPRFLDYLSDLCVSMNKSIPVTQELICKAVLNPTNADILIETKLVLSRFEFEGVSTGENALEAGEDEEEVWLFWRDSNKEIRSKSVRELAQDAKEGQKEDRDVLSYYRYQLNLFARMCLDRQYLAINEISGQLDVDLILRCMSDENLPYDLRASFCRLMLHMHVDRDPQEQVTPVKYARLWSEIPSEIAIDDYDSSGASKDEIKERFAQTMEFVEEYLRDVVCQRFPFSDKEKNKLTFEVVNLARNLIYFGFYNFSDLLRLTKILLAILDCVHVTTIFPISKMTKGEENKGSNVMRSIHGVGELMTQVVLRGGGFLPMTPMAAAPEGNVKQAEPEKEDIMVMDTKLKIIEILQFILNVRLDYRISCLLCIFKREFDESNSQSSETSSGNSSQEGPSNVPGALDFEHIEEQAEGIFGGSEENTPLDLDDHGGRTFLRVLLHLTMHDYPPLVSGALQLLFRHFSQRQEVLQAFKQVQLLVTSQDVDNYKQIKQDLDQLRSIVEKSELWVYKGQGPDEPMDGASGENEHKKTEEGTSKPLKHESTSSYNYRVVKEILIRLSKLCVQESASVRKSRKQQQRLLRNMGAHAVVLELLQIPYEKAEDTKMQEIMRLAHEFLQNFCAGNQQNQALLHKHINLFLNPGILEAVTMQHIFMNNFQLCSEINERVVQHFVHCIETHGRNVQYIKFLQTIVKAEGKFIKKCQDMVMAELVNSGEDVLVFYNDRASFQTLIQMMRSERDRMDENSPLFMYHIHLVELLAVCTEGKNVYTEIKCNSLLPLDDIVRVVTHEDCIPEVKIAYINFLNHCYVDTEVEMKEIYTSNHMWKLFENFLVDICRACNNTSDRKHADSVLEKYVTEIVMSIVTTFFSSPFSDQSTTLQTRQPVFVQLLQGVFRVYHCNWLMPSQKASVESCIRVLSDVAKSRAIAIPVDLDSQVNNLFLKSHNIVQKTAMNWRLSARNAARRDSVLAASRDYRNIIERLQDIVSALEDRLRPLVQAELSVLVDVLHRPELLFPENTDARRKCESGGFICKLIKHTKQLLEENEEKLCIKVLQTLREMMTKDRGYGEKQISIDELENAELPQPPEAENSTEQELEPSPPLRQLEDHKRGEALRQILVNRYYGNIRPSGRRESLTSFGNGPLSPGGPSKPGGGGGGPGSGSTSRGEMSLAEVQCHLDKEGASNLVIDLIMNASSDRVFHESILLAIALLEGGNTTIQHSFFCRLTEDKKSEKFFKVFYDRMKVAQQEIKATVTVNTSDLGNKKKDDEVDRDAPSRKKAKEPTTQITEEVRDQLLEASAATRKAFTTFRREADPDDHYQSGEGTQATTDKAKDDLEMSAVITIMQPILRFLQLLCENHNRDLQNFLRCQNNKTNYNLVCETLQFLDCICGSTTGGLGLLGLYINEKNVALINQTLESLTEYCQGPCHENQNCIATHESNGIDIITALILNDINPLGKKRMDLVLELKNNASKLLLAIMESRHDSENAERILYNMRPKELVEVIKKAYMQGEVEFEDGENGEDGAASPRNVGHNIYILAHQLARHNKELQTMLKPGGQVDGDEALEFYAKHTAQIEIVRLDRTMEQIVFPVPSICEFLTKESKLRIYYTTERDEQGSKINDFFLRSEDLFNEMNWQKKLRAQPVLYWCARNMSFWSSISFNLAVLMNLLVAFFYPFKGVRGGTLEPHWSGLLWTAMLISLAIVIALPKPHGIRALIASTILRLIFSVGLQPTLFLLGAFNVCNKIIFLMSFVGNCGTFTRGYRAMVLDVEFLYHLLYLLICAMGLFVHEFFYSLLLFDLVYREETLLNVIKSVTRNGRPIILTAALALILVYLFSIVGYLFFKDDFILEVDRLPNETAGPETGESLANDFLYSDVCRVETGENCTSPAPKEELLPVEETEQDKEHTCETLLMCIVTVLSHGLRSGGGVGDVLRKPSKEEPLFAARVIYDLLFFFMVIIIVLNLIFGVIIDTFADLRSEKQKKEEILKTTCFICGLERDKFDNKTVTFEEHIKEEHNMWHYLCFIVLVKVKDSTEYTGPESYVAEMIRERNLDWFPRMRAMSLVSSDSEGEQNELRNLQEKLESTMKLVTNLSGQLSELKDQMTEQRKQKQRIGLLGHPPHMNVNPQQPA

SMILES | calcium ion released of that incorporated into the endoplasmic reticulum (adenophostin activities at 10 nM stated equal to that of InsP3) ([1]; InsP3 at 10 μM) | calcium ion released of that incorporated into the endoplasmic reticulum [1] | Solubility in acetone, ethyl acetate or chloroform [2] | Solubility in lower alcohols [2] | Solubility in water and dimethyl sulfoxide [2] | IC50 [3]
O=P(O)(O)O[C@@H]1[C@H](O)[C@H](O)[C@@H](OP(=O)(O)O)[C@H](OP(=O)(O)O)[C@H]1O [InsP3, inositol 1,4,5-trisphosphate, reference compound] | 35% |  |  |  |  | 
CC(=O)OC[C@H]1O[C@H](O[C@H]2[C@@H](OP(=O)(O)O)[C@H](n3cnc4c(N)ncnc43)O[C@@H]2CO)[C@H](O)[C@@H](OP(=O)(O)O)[C@@H]1OP(=O)(O)O [adenophostin B] |  | 35% | insoluble | slightly soluble | Soluble | 8 nM
Nc1ncnc2c1ncn2[C@@H]1O[C@H](CO)[C@@H](O[C@H]2O[C@H](CO)[C@@H](OP(=O)(O)O)[C@H](OP(=O)(O)O)[C@H]2O)[C@H]1OP(=O)(O)O [adenophostin A] |  | 35% | insoluble | slightly soluble | Soluble | 6 nM
